From PMC7157241, “Phenotypic Drug Discovery for Human African Trypanosomiasis: A Powerful Approach” (Tropical Medicine and Infectious Disease, 2020)
Read-outs that look alike come from different tables or passages of the source.

What was measured:
[1] = Brain permeability studies in mice (brain to plasma ratio); format: in vivo, mouse; conditions: for Kp at 1 h / Kp at 60 min: 5 mg/kg, mouse; for Kp at 60 min: read-out: B/P Ratio (Mouse)
Experimental: Test compounds were injected (ip) at 5 mg/kg to three mice in a vehicle consisting of DMSO (5%), Tween 80 (7%), and EtOH (3%) in physiological saline (0.9%) solution [8]. At 1 h post injection, blood was collected, and plasma was separated by centrifugation. Simultaneously, the brain was removed and homogenized in acetonitrile. Concentrations of compound in the plasma and brain were determined via liquid chromatography/tandem mass spectrometry. Calculations of brain levels accounted for 3% volume/weight of blood in the brain.
The long-term goal of the project was to develop a drug for treatment of HAT including late-stage disease involving the central nervous system. […] To assess this, the sixteen hit compounds were injected […] and mice were sacrificed at 60 min (n = 3 mice) for the simultaneous collection of plasma and whole brains for the quantification of compound concentrations. Eleven compounds (1–10, 12) had brain levels of at least 25% of plasma levels and were considered candidates for development. One compound (11) had modest brain permeability of 9%, but was included for further chemistry despite this marginal activity. Four compounds (13–15, 17) had minimal concentrations in the brain (< 2% of plasma levels) and were no longer pursued.

[2] = tested on: T. brucei brucei (strain BF427); experiment: In vitro parasite growth arrest assay (AlamarBlue); format: cell-based, Trypanosoma brucei brucei
Experimental: Follow up compounds were tested for antiparasitic activity on T. brucei brucei (strain BF427). Parasites were tested in triplicate in the presence of serial dilutions of compound, and growth was quantified with AlamarBlue.

[3] = Mammalian cell cytotoxicity assay (AlamarBlue, 48 h); format: cell-based; conditions: human
Experimental: Compounds were tested for cytotoxicity against CRL-8155 cells (human lymphoblasts). Cells were grown in culture with serial dilutions of compounds for 48 h and cytotoxicity was assayed using AlamarBlue (Life Technologies, Carlsbad, California CA, USA).

[4] = tested on: T. b. brucei (strain TREU667); experiment: Anti-parasite efficacy in mice (chronic model); format: in vivo, mouse; conditions: chronic infection model (unpublished)
Experimental: Groups of six to eight mice were infected with 1 × 10^4 T. b. brucei (strain TREU667) to establish a chronic infection. Treatment began on day 21 post-infection, and mice received 50 mg/kg test compound orally twice per day for 10 days (total of 20 doses) in a 200 μL volume of vehicle. A control group received the vehicle with no compound and another control group received a single intraperitoneal dose of diminazene aceturate at 10 mg/kg on day 21. […] After dosing, parasitemia was monitored via microscopic examination of tail blood slides until 180 days post-infection. Mice were removed from the experiment when parasites were detected in the blood.

[5] = Mouse liver microsome stability; conditions: for half-life: mouse, liver microsomes
[6] = tested on: T. brucei rhodesiense STIB 900 strain; conditions: acute infection model; cited from earlier work
[7] = Single dose oral pharmacokinetic study in mice; format: in vivo; conditions: mouse, oral gavage 50 mg/kg
Experimental: Test compounds were administered to mice by oral gavage followed by blood sampling at intervals of 30, 60, 120, 240, 360, 480, and 1440 min [5, 7]. Compounds were dosed orally at 50 mg/kg in 0.2 mL of dosing solution (7% Tween 80, 3% ethanol, 5% DMSO, 0.9% saline). Experiments were performed with groups of three mice per compound as published. Plasma was separated and extracted with acetonitrile for measurements of the compound concentrations by liquid chromatography/tandem mass spectrometry.
New compounds had T. brucei EC50, mammalian host cell cytotoxicity (CC50), and aqueous solubility assayed per our screening cascade (Figure 2). The cut-off values for further advancement are shown. […] The screening results were continuously reviewed by the chemistry group to define structure activity relationships (SAR). […] Mice were administered compounds by oral gavage at 50 mg/kg and whole blood samples were collected on blotting cards at serial time points. The parameters of maximum blood concentration (Cmax) and the concentration of compound integrated over time (area under curve, AUC) were of primary interest. The general rule was to attain plasma concentrations 10 times above the T. brucei EC50 value for at least eight hours. […]

[8] = Human microsome stability; format: in vitro ADME; conditions: microsomes, Figure 3, read-out: Human microsome t½
[9] = microsomes
[10] = Brain permeability studies in mice (brain to plasma ratio); format: in vivo; conditions: mouse, 5 mg/kg
[11] = tested on: T. b. brucei (strain TREU667); set-up: method as in PMID 27992217; conditions: cited from earlier work
[12] = Trypanosoma brucei, Figures 4 and 5, read-out: T. brucei EC50
[13] = brain and plasma, intraperitoneal, Figure 3, read-out: Brain:Plasma
[14] = Trypanosoma brucei, Figure 3, Scaffold 1 optimization, read-out: T. brucei EC50
[15] = CRL-8155 cells (lymphoblasts), Figure 3, Scaffold 1 optimization, read-out: CC50
[16] = in vivo, brain to plasma ratio at 60 min following IP dose
[17] = Trypanosoma brucei, selected hit compounds, Table 1, read-out: T. brucei EC50
[18] = lymphocytic cell line CRL-8155, read-out: Mammalian CC50
[19] = in vivo, Figures 4 and 5, read-out: Brain:Plasma ratio
[20] = brain and plasma, brain to plasma ratio at 60 min following IP dose
[21] = CRL-8155 cells (lymphoblasts), lymphocytic cell line CRL-8155, read-out: Mammalian CC50

COc1cc(N2C(=O)CN(Cc3ccc(F)cc3Cl)C2=S)ccc1N(C)C [BA-738]
Kp at 1 h ([1]; brain and plasma, intraperitoneal, Figures 4 and 5, read-out: Brain:Plasma ratio): 1.68 | EC50 [2, 12]: 1.9 nM | CC50 at 48 h ([3]; CRL-8155 cells (lymphoblasts), Figure 5, read-out: Mammalian cell CC50): > 50 µM | cures in the chronic infection model [4]: 20 % of mice | Mouse liver microsome t½ ([5]; Figures 4 and 5): 11 min | outcome in acute T. brucei infection in mice [6]: cured mice

O=C(Nc1ccc(F)c(-c2nc3cc(-c4ccccc4)cnc3[nH]2)c1)N1CCCC1 [HB-175]
Kp at 1 h [1, 13]: 0.04 | EC50 [2, 14]: 4 nM | AUC [7]: 1236 µmol·min

Cc1nc(C)c(C(=O)Nc2ccc(F)c(-c3nc4ncc(-c5ccccc5Cl)cn4n3)c2)o1 [PN-302]
Kp at 1 h [1, 13]: 0.23 | CC50 at 48 h [3, 15]: > 50 µM | half-life [5]: > 90 min | AUC [7]: 55901 µmol·min | half-life [8]: > 90 min

N=C(N)c1ccc(OCCCCCOc2ccc(C(=N)N)cc2)cc1 [Pentamidine isothionate, reference compound]
EC50 ([2]; positive control included in each assay, read-out: EC50 of positive control): 1.2 ± 0.3 nM

O=C(Nc1ccc(Cl)c(-c2nc3ncccc3o2)c1)c1ccco1 [Scaffold 1]
Kp at 60 min [1, 16]: 0.547 | EC50 [2, 14]: 220 nM | EC50 [2, 17]: 218 nM | CC50 at 48 h ([3]; Figure 3, Scaffold 1 optimization, read-out: CC50): 50 µM | CC50 at 48 h [3, 18]: > 50 µM | Mouse microsome t½ [9]: 0.8 min

O=C(NCCc1nc(-c2ccccc2)cs1)c1ccccc1 [Scaffold 2]
Kp at 1 h [1, 19]: 0.3 | Kp at 60 min [1, 16]: 0.3 | CC50 at 48 h [3, 18]: > 50 µM

O=c1c2ccccc2nc(SCc2cccnc2)n1Cc1ccco1 [Scaffold 3]
Kp at 60 min [1, 20]: 2.86 | EC50 [2, 17]: 874 nM | CC50 at 48 h [3, 21]: 38 µM

Cc1nn2c(NCCCO)c3c(nc2c1-c1cccs1)CCC3 [Scaffold 6]
Kp at 60 min [1, 20]: 0.727 | EC50 [2, 17]: 307 nM | CC50 at 48 h [3, 21]: > 100 µM

COc1ccc(-n2nc(C(=O)NCC(=O)N3CCCC(C)C3)c3ccccc3c2=O)cc1Cl (stereo not shown) [Scaffold 7]
Kp at 60 min [1, 20]: 0.587 | EC50 [2, 17]: 657 nM | CC50 at 48 h [3, 21]: > 50 µM

Fc1ccccc1C1C=C(c2cccnc2)Nc2nnnn21 (stereo not shown) [Scaffold 8]
EC50 [2, 17]: 214 nM | CC50 at 48 h [3]: 14.3 µM | Kp at 15 min ([10]; in vivo, brain to plasma ratio at 15 min following IP dose (Scaffold 8), read-out: B/P Ratio (Mouse)): 7.11

CCn1cc(CN2CCCC(C(=O)Nc3ccc(-c4nc5ccccc5[nH]4)cc3)C2)cn1 (stereo not shown) [Scaffold 10]
Kp at 60 min [1, 20]: 0.224 | EC50 [2, 17]: 2440 nM

O=c1nc(/C=C/c2cn(Cc3ccccc3F)c3ccccc23)cc(C(F)(F)F)[nH]1 [Scaffold 11]
Kp at 60 min [1, 20]: 0.09 | EC50 [2, 17]: 3090 nM | Kp at 60 min ([10]; brain and plasma, intraperitoneal, mice sacrificed at 60 min, n = 3, read-out: brain levels as percent of plasma levels): 0.09

COc1ccc(CNC(=O)CN(c2cccc(C)c2C)S(=O)(=O)c2ccccc2)cc1 [Scaffold 12]
Kp at 60 min [1, 20]: 0.267 | EC50 [2, 17]: 1700 nM | CC50 at 48 h [3, 21]: > 100 µM

Cc1cc(C)c(NC(=O)c2cc(S(=O)(=O)N3CCOCC3)cn2C)c(C)c1 [Scaffold 13]
Kp at 60 min [1, 20]: 0.02 | EC50 [2, 17]: 1000 nM | CC50 at 48 h [3, 21]: > 100 µM

COCCN1C(=O)c2ccccc2C(C(=O)Nc2ccc(Oc3ccccc3)cc2)C1c1ccc(F)cc1 (stereo not shown) [Scaffold 14]
Kp at 60 min [1, 20]: 0.01 | EC50 [2, 17]: 708 nM | CC50 at 48 h [3, 21]: > 100 µM

COc1cccc(C2N(c3ccccc3)N=C(C(C)=O)N2c2ccc(C)c(C)c2)c1OCc1ccccc1 (stereo not shown) [Scaffold 15]
Kp at 60 min [1, 20]: 0 | EC50 [2, 17]: 1500 nM | CC50 at 48 h [3, 21]: 33 µM

O=C(CSc1nc2scc(-c3ccccc3)c2c(=O)n1-c1ccccc1)Nc1ccccc1F [Scaffold 16]
plasma and brain levels ([1]; 60-min time point): nearly undetectable plasma and brain levels | B/P Ratio (Mouse) ([1]; brain to plasma ratio at 60 min following IP dose): No plasma exposure | EC50 [2, 17]: 650 nM | CC50 at 48 h [3, 21]: > 100 µM

COc1ccc(-c2c(C#N)c(SCc3ccccc3)nc(C)c2C(=O)Nc2ccccc2)cc1 [Scaffold 17]
Kp at 60 min [1, 20]: 0 | EC50 [2, 17]: 3500 nM | CC50 at 48 h [3, 21]: > 100 µM

O=C(Nc1ccc2sc(-c3ccc(F)c(F)c3)nc2c1)N1CC[C@H](F)C1 [Scaffold 45DAP076]
Kp at 1 h [1, 19]: 4 | EC50 [2, 12]: 35 nM | half-life [5]: > 60 min | activity in the chronic T. brucei infection model [11]: curative activity

O=C(Nc1ccc(F)c(-c2nc3ncccc3o2)c1)c1ccco1 [Site I: F]
EC50 [2, 14]: 80 nM | CC50 at 48 h [3, 15]: 99.7 µM | half-life [5]: 0.7 min

O=C(Nc1ccc(Cl)c(-c2nc3ncccc3o2)c1)N1CCCC1 [Site II: pyrrolidine]
EC50 [2, 14]: 80 nM | CC50 at 48 h [3, 15]: 73 µM | half-life [5]: 0.8 min

O=C(Nc1ccc(Cl)c(-c2nc3cc(Br)cnc3[nH]2)c1)c1ccco1 [Site III: as shown]
EC50 [2, 14]: 50 nM | CC50 at 48 h [3, 15]: 200 µM | half-life [5]: 0.8 min

O=C(c1ccco1)N(C(=O)c1ccco1)c1ccc(Cl)c(-c2nc3ncccc3o2)c1 [Site V: as shown]
EC50 [2, 14]: 100 nM | CC50 at 48 h [3, 15]: 86 µM | half-life [5]: 0.7 min
